Data taken from US10517889B2, “Modulators of SMAD7 expression” (Ionis Pharmaceuticals, Inc., priority 2017, dated 2019).
pIC50: −log10 of the molar value.

Tests used:
[1] = Oligonucleotide concentration in liver and colon by LC-MS/MS after subcutaneous administration in CD-1 mice (Example 6); format: in vivo; conditions: 50 mg/kg subcutaneously twice a week for 7 weeks, 48 hours after the last dose
Procedure: Groups of 8-9 week old male CD-1 mice were injected subcutaneously twice a week for 7 weeks with 50 mg/kg of Ionis oligonucleotides (100 mg/kg/week dose). Each group contained 4 mice. One group of male CD-1 mice was injected subcutaneously twice a week for 7 weeks with PBS. Plasma was collected for analysis on day 28.
Oligonucleotide concentrations in the liver and colon were analyzed using LC-MS/MS method.

[2] = Hematology assays after oral gavage in CD-1 mice (Example 7); format: in vivo; set-up: RBC: unit not given here; conditions: 500 mg/kg oral gavage once daily for 4 weeks
Procedure: (§1) Groups of 7-8 week old male CD-1 mice were given an oral gavage dose once daily for 4 weeks of 500 mg/kg of Ionis SMAD7 oligonucleotides. Each group contained 8 mice. One group of male CD-1 mice was administered saline by oral gavage daily.
Blood obtained from all mouse groups was measured by an ADVIA2120i hematology analyzer (Siemens, USA) for measurements of the various blood cells, as well as other hematology markers. None of the Ionis SMAD7 oligonucleotides caused changes in the levels of any of the hematology markers outside the expected range for antisense oligonucleotides.

[3] = Oligonucleotide concentrations in tissues by LC-MS/MS after oral gavage in CD-1 mice (Example 7); format: in vivo; conditions: 500 mg/kg oral gavage once daily for 4 weeks, 48 hours after last dose
Procedure: as §1
Oligonucleotide concentrations were detected in various tissues by LC-MS/MS analysis. The greatest concentration was found in the kidney, followed by the colon.

[4] = Body and organ weights after subcutaneous administration in beagle dogs (Example 8); format: in vivo; conditions: 30 mg/kg subcutaneous days 1, 3, 5, 8, 15, 22, 29, end of study
Procedure: (§2) There were 4 animals per group.
Body weights as well as kidney, spleen, liver (with gall bladder), mesenteric lymph node, heart, and thymus weights were measured at the end of the study. […] Ionis SMAD7 oligonucleotides that caused any changes in organ weights outside the expected range for antisense oligonucleotides were excluded from further studies.

[5] = Hematology assays after subcutaneous administration in beagle dogs (Example 8); format: in vivo; conditions: 30 mg/kg subcutaneous days 1, 3, 5, 8, 15, 22, 29
Procedure: as §2
Blood samples were collected from the cephalic vein or saphenous vein of each animal. About 0.5 mL of blood samples was put into tubes containing the potassium salt of EDTA. Blood obtained from all dog groups was measured using an ADVIA2120i hematology analyzer for measurements of the various blood cells, as well as other hematology markers.

[6] = tested on: dog SMAD7 mRNA; experiment: Pharmacology: dog SMAD7 mRNA expression in liver, kidney, duodenum, ileum and colon after subcutaneous administration in beagle dogs (Example 8); format: in vivo; conditions: 30 mg/kg subcutaneous, necropsy, normalized to HPRT1
Procedure: as §2
The pharmacological activity of the Ionis oligonucleotides in dogs was assessed by measuring dog SMAD7 mRNA expression in liver, kidney, duodenum, ileum, and colon at necropsy. All the human ASOs used are complementary to dog SMAD7 mRNA.
Tissue samples from all dogs were analyzed for SMAD7 mRNA expression using the primer probe set RTS34649 (forward sequence […], designated SEQ ID NO: 2740; reverse sequence […], designated SEQ ID NO: 2741; probe sequence […], designated SEQ ID NO: 2742), which was normalized to mRNA levels of the housekeeping gene, HPRT1. One-way ANOVA with Dunnet's comparison test was used for statistical analysis.

[7] = tested on: murine Smad7 mRNA; experiment: Dose-dependent inhibition of murine Smad7 mRNA in bEND cells, electroporation (Example 5, Study 2); format: cell-based, mouse; conditions: electroporation; for % inhibition of SMAD7 mRNA expression: approximately 16 hours
Procedure: Many of the Ionis designed oligonucleotides as well as ION 736697/Mongersen are complementary to mouse Smad7 mRNA. […] After a treatment period of approximately 16 hours, the cells were washed and lyzed and RNA on 384-well Pall plates with DNase I treatment. Smad7 mRNA levels were measured by quantitative real-time PCR. Primer probe set RTS1114 (forward sequence […], designated herein as SEQ ID NO: 8; reverse sequence […], designated herein as SEQ ID NO: 9; probe sequence […], designated herein as SEQ ID NO: 10) was used to measure murine Smad7 mRNA levels. Smad7 mRNA levels were adjusted according to total RNA content, as measured by RIBOGREEN®. Results are presented as percent inhibition of Smad7 mRNA expression, relative to untreated control cells.
Many of the Ionis oligonucleotides had greater potency than ION 736697/Mongersen.

What does the source list for “829994 (GGAGGCAGGGCCGCGA; 3-10-3 cEt gapmer, further chemistry not given here) [compound 829994]”?
Oligonucleotide concentration, Colon [1]: 11 μg/g tissue; Oligonucleotide concentration, Liver [1]: 45 μg/g tissue; Basophils [2]: 0.01 10^3/μL; Eosinophils [2]: 0.09 10^3/μL; Hematocrit [2]: 51.5%; Hemoglobin [2]: 15.2 g/dL; Lymphocytes [2]: 80.4%; MCH [2]: 15.1 pg; MCHC [2]: 29.5 g/dL; MCV [2]: 51.2 fL; Monocytes [2]: 0.10 10^3/μL; Neutrophils [2]: 14.0%; RBC [2]: 10.1; Reticulocytes [2]: 3.0%; WBC [2]: 4.1 10^3/μL; platelets [2]: 1219 10^3/μL; Oligonucleotide concentration, Colon [3]: 5.7 µg/g; Oligonucleotide concentration, Duodenum [3]: 0.8 µg/g; Oligonucleotide concentration, Ileum [3]: 4.0 µg/g; Oligonucleotide concentration, Kidney [3]: 9.8 µg/g; Oligonucleotide concentration, Liver [3]: 1.3 µg/g; Body weight [4]: 7335 g; Heart weight [4]: 57.9 g; Kidney weight [4]: 39.1 g; Liver weight [4]: 250.0 g; Mesenteric LN weight [4]: 9.0 g; Spleen weight [4]: 22.8 g; Thymus weight [4]: 6.3 g; Basophils [5]: 0.5%; Eosinophils [5]: 1.8%; Hematocrit [5]: 44%; Hemoglobin [5]: 15.3 g/dL; Lymphocytes [5]: 26%; MCH [5]: 23.2 pg; MCHC [5]: 35.1 g/dL; MCV [5]: 66 fL; Monocytes [5]: 6.3%; Neutrophils [5]: 65%; PLT [5]: 287 ^3/μL; RBC [5]: 6.6 ^6/L; Reticulocytes [5]: 0.9%; WBC [5]: 12.5 ^3/μL; % inhibition of SMAD7 mRNA expression (compared to control), Distal colon [6]: 29%; % inhibition of SMAD7 mRNA expression (compared to control), Duodenum [6]: 2%; % inhibition of SMAD7 mRNA expression (compared to control), Ileum [6]: 32%; % inhibition of Smad7 mRNA expression (compared to control), Kidney [6]: 0%; % inhibition of Smad7 mRNA expression (compared to control), Liver [6]: 0%; % inhibition of SMAD7 mRNA expression (compared to control), Proximal colon [6]: 34%

With “830037 (antisense CTATTGGCTGATCTGG; 3-10-3 cEt gapmer, further chemistry not given here) [compound 830037]” as the substance, how does the “% inhibition of SMAD7 mRNA expression” value ([7]; 0.25 μM) read?
The value was 0%.

What about the “% inhibition of SMAD7 mRNA expression” value ([7]; 0.74 μM) of the same substance?
Its value is 6%.

What about the “% inhibition of SMAD7 mRNA expression” value ([7]; 2.22 μM) of the same substance?
Its value is 1%.

What about the “% inhibition of SMAD7 mRNA expression” value ([7]; 6.67 μM) of the same substance?
The value was 0%.

And the “% inhibition of SMAD7 mRNA expression” value ([7]; 20.00 μM)?
The value was 0%.

And the pIC50 [7]?
The pIC50 was under 4.70.

What about the “Oligonucleotide concentration, Colon” value [1] of the same substance?
Its value is 24 μg/g tissue.

What about the “Oligonucleotide concentration, Liver” value [1] of the same substance?
The value was 97 μg/g tissue.

What about the Basophils [2] of the same substance?
Its Basophils is 0.01 10^3/μL.

And the Eosinophils [2]?
The Eosinophils was 0.15 10^3/μL.

And the Hematocrit [2]?
Its Hematocrit is 53.4%.

What about the Hemoglobin [2] of the same substance?
The Hemoglobin was 15.4 g/dL.

And the Lymphocytes [2]?
The Lymphocytes was 73.2%.

What about the MCH [2] of the same substance?
The MCH was 15.4 pg.

What about the MCHC [2] of the same substance?
The MCHC was 28.9 g/dL.

What about the MCV [2] of the same substance?
Its MCV is 53.2 fL.

What about the Monocytes [2] of the same substance?
The Monocytes was 0.13 10^3/μL.

And the Neutrophils [2]?
The Neutrophils was 19.3%.

What about the RBC [2] of the same substance?
Its RBC is 10.1.

And the Reticulocytes [2]?
The Reticulocytes was 3.1%.

And the WBC [2]?
The WBC was 4.3 10^3/μL.

What about the platelets [2] of the same substance?
Its platelets is 1122 10^3/μL.

What about the “Oligonucleotide concentration, Colon” value [3] of the same substance?
Its value is 4.8 µg/g.

And the “Oligonucleotide concentration, Duodenum” value [3]?
Its value is 1.2 µg/g.

What about the “Oligonucleotide concentration, Ileum” value [3] of the same substance?
The value was 2.7 µg/g.

And the “Oligonucleotide concentration, Kidney” value [3]?
Its value is 32.4 µg/g.

What about the “Oligonucleotide concentration, Liver” value [3] of the same substance?
Its value is 3.9 µg/g.

What about the Body weight [4] of the same substance?
The Body weight was 6437 g.

And the Heart weight [4]?
The Heart weight was 51.9 g.

What about the Kidney weight [4] of the same substance?
Its Kidney weight is 36.7 g.

What about the Liver weight [4] of the same substance?
The Liver weight was 204.1 g.

What about the “Mesenteric LN weight” value [4] of the same substance?
The value was 9.0 g.

What about the Spleen weight [4] of the same substance?
The Spleen weight was 23.7 g.

What about the Thymus weight [4] of the same substance?
Its Thymus weight is 6.3 g.

And the Basophils [5]?
The Basophils was 0.7%.

What about the Eosinophils [5] of the same substance?
Its Eosinophils is 2.6%.

And the Hematocrit [5]?
The Hematocrit was 52%.

And the Hemoglobin [5]?
The Hemoglobin was 17.5 g/dL.

And the Lymphocytes [5]?
The Lymphocytes was 32%.

And the MCH [5]?
Its MCH is 22.1 pg.

And the MCHC [5]?
Its MCHC is 33.6 g/dL.

What about the MCV [5] of the same substance?
The MCV was 66 fL.

What about the Monocytes [5] of the same substance?
The Monocytes was 8.0%.

What about the Neutrophils [5] of the same substance?
Its Neutrophils is 57%.

And the PLT [5]?
The PLT was 280 ^3/μL.

What about the RBC [5] of the same substance?
Its RBC is 8.0 ^6/L.

What about the Reticulocytes [5] of the same substance?
Its Reticulocytes is 0.3%.

What about the WBC [5] of the same substance?
Its WBC is 8.5 ^3/μL.

And the “% inhibition of SMAD7 mRNA expression (compared to control), Distal colon” value [6]?
Its value is 22%.

What about the “% inhibition of SMAD7 mRNA expression (compared to control), Duodenum” value [6] of the same substance?
The value was 33%.

What about the “% inhibition of SMAD7 mRNA expression (compared to control), Ileum” value [6] of the same substance?
Its value is 22%.

And the “% inhibition of Smad7 mRNA expression (compared to control), Kidney” value [6]?
The value was 40%.

And the “% inhibition of Smad7 mRNA expression (compared to control), Liver” value [6]?
Its value is 0%.

And the “% inhibition of SMAD7 mRNA expression (compared to control), Proximal colon” value [6]?
Its value is 50%.
